Peptide text beside a SMILES is read from it.
Tests used:
His-tagged PotH = biological target: T1, His-tagged PotH (Escherichia coli, UniProt P31135); test: His-tagged PotH binding to peptide columns; set-up: species or system E. coli; settings: step gradient 0.3, 0.5, 1.0 M KCl, 0.05% dodecyl-β-D-maltopyranoside, 4 °C, anti-His Western blot, n = 3
T1 construct: host or cells: legend says PA14
Description: We used the pFeoB plasmid ([6]) with feoB insert from P. aeruginosa PAO1 in pET41-a(+) with a C-terminal 8-His tag and kanamycin-resistant cassette, and E. coli EcCD00397460 plasmid (DNASU Plasmid Repository, Tempe Arizona) with potH insert in PCDF Bravo with C-terminal 10-His tag and streptomycin-resistant cassette. Plasmids of each were generated using standard procedures. His-tagged FeoB or PotH proteins in the supernatant were captured on Ni-Sepharose for 4 h with end-over-end rotation at 4 °C, washed with 10 mM HEPES potassium salt, 10% glycerol, 0.5 M NaCl, 10 mM MgSO4, 10 mM imidazole, and 0.05% dodecyl-β-D-maltopyranoside and eluted with the same wash buffer but containing 0.2 M NaCl and 0.5 M imidazole. Eluted FeoB and PotH were concentrated into 10 mM HEPES potassium salt, 10% glycerol, 10 mM MgSO4, 0.05% dodecyl-β-D-maltopyranoside and 0.15 M NaCl respectively on Amicon Ultra-0.5 Centrifugal UFC505024, UFC503024 and UFC900596 filter units.
N-104 and C-95 columns (1 ml each) equilibrated in 10 mM HEPES potassium salt, 10% glycerol, 10 mM MgSO4, 0.05% dodecyl-β-D-maltopyranoside, and 0.15 M NaCl were individually mixed at 4 °C overnight with purified FeoB and PotH. […]

OprF = biological target: T2, OprF (Pseudomonas aeruginosa, UniProt P13794); test: Affinity pulldown/tandem mass spectrometry of PA14 lysate; assay type: binding, Pseudomonas aeruginosa PA14; settings: 500 mM KCl eluate, n-octyl-β-D-glucopyranoside lysate, 4 °C
T2 construct: endogenous in cells; host or cells: P. aeruginosa PA14 overnight culture, n-octyl-β-D-glucopyranoside lysate
T2 sequence (P13794 25-350): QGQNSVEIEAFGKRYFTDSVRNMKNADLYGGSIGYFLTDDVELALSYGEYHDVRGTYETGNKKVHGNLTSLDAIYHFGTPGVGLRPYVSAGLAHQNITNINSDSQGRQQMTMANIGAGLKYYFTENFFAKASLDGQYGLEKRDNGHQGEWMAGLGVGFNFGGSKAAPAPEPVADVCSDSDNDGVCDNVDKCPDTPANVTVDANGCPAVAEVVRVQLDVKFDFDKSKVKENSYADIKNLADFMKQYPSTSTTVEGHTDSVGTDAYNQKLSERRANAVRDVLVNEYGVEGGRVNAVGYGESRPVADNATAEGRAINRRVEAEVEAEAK
Description: (§1) For generation of N-104 and negative control C-95 affinity columns, 2 mg of Cys(N)-N-104 or Cys(N)-C-95 in 2 ml of 50 mM Tris (pH 8.5), 5 mM EDTA coupling buffer were incubated with an equal volume of suspended SulfoLink Coupling Resin with mixing for 3 h at room temperature. Columns were subsequently washed with 3 ml of coupling buffer followed by 2 ml of freshly prepared 50 mM L-cysteine for 2 h at room temperature for quenching and then washed with 10 ml of 1 M NaCl prior to use or storage in 0.05% sodium azide at 4 °C. Coupling efficiency was determined using fluorescence from N-104's penultimate C-terminal tryptophan as 0.65 ± 0.04 μmole per ml of resin.
(§2) Screening for PA14 proteins with N-104 affinity columns was initiated from pelleted 2.5 L overnight cultures that were washed with ice-cold 10 mM Na2HPO4, 1.8 mM KH2PO4, 2.7 mM KCl, 137 mM NaCl (pH 7.2) and lysed by sonication in 25 ml of 50 mM Tris (pH 7.5), 1 mM MgCl2, 200 mM n-octyl-β-D-glucopyranoside with protease inhibitors. Sonication involved five cycles of 15 s with 45 s rest on ice followed by vortexing on ice for 30 min before being rocked end-over-end overnight at 4 °C. After centrifugation, the supernatant was subjected to end-over-end mixing with a 3-ml pre-column of Pierce Agarose followed by equal division by protein concentration for end-over-end incubation with 1 ml N-104 or C-95 columns at 4 °C. […]

YaiW = test: as above; assay type: binding, Pseudomonas aeruginosa PA14; settings: 500 mM KCl eluate, n-octyl-β-D-glucopyranoside lysate, 4 °C
Description: as §1, §2

T1 sequence (P31135 whole entry): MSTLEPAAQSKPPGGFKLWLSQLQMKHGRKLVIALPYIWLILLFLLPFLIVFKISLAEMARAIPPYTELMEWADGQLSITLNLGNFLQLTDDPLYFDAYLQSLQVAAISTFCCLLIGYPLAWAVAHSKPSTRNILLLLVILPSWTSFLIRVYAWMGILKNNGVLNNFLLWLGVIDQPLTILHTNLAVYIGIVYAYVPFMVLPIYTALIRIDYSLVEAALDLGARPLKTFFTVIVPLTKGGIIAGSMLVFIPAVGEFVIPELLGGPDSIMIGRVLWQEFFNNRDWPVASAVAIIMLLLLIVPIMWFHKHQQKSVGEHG

C[C@H](NC(=O)CNC(=O)[C@@H](NC(=O)[C@H](CO)NC(=O)[C@H](CC(=O)O)NC(=O)[C@H](CO)NC(=O)[C@H](CO)NC(=O)[C@H](C)NC(=O)[C@H](CC(=O)O)NC(=O)[C@@H](N)CCC(=O)O)[C@@H](C)O)C(=O)N[C@@H](CC(=O)O)C(=O)N1CCC[C@H]1C(=O)N[C@@H](C)C(=O)N[C@@H](CCC(N)=O)C(=O)N[C@@H](CCC(=O)O)C(=O)N[C@@H](C)C(=O)NCC(=O)N[C@H](C(=O)N[C@@H](CO)C(=O)N[C@@H](CCCCN)C(=O)N1CCC[C@H]1C(=O)N[C@@H](CC(N)=O)C(=O)N[C@@H](CCC(=O)O)C(=O)N[C@@H](CCC(=O)O)C(N)=O)[C@@H](C)O [C-95, reference compound] (H-EDASSDSTGADPAQEAGTSKPNEE-NH2) was tested, and the “KCl elution of His-PotH from immobilized peptide” value (His-tagged PotH) was “lacked” and the “binding of outer membrane OprF to immobilized peptide” value (OprF) was “binds OprF”.

CC(=O)N[C@@H](C)C(=O)N[C@@H](CCC(N)=O)C(=O)N[C@@H](CCCCN)C(=O)N[C@@H](CC(C)C)C(=O)N[C@@H](CC(C)C)C(=O)N[C@@H](CCCCN)C(=O)N[C@@H](CCCCN)C(=O)N[C@@H](Cc1ccccc1)C(=O)N[C@@H](CO)C(=O)N[C@@H](CC(C)C)C(=O)N[C@@H](CC(C)C)C(=O)N[C@@H](CCCCN)C(=O)N1CCC[C@H]1C(=O)N[C@@H](Cc1c[nH]c2ccccc12)C(=O)N[C@@H](C)C(=O)O [N-104] (Ac-AQKLLKKFSLLKPWA-OH) was tested, and the “KCl elution of His-PotH from immobilized peptide” value (His-tagged PotH) was “eluted with 0.5 and 1 M but not 0.3 M KCl” and the “affinity of outer membrane YaiW for immobilized peptide” value (YaiW) was “selective affinity”.

Reference: paper PMC12147183, “Lacritin cleavage-potentiated targeting of iron - respiratory reciprocity promotes bacterial death” (The Journal of Biological Chemistry, 2025)
